Assay results: patent US8450271B2, “Peptide-based scaffolds for cartilage regeneration and methods for their use” (Northwestern University, priority 2009, dated 2013)
Where no end group is shown, it is not given here. The star is where a group is joined. Lauroyl = CCCCCCCCCCCC(=O)*

Legend:
[1] = tested on: Rabbit Full Thickness Articular Cartilage Defects; experiment: Histological evaluation (O'Driscoll scoring) of cartilage regeneration after microfracture in rabbit articular cartilage defect model; type: in vivo, New Zealand White Rabbits
Protocol: Animal study was conducted at Northwestern University (Chicago, Ill.) in accordance with a protocol approved by the University's Animal Care and Usage Committee (ACUC). Ten (10) male New Zealand White Rabbits (weighing 3-3.5 kg) were anesthetized by intramuscular injection of ketamine at 30-40 mg/kg and xylazine 5-7 mg/kg. Isoflourane (1-3%) and oxygen were supplied by face mask until the animal was induced to sedation and general anesthesia for the entire procedure. Life support monitoring was supervised by veterinarians at Northwestern University's Center for Comparative Medicine (CCM, Chicago, Ill.). Under sterile aseptic technique, a midline 2-cm incision was made with the knee flexed at 20 degrees and subsequently a medial parapatellar capsulotomy was performed and the patella was translated laterally to expose the articular surface of the trochlea. Two full thickness chondral defects 2-mm in diameter were created in the trochlea (proximal-medial and distal-lateral) using curettes. The articular cartilage, including the calcified cartilage layer, was completely removed and subchondral bone was exposed using a micro-curette as shown in FIG. 4a. Care was taken to not disrupt the subchondral bone, and sharp edges were created at the transition zone with the surrounding intact cartilage. Microfracture was performed within the defects by creating 3 holes spaced equally apart, and 2-mm deep to subchondral bone with a micro-awl. Marrow blood was seen emerging out of each microfracture hole and was allowed to infiltrate the cartilage defect (see FIG. 4b), which was then treated as described in Example 4.2 by application of the TGF-binding peptide amphiphile gel, or a control gel, with or without the addition of exogenous recombinant TGF-β1.
Post-operatively each rabbit was given intramuscular (IM) antibiotics (Baytril 72 hours duration) and IM pain medicine (Buprenex 24 hours duration). Signs of local or systemic infection were recorded as well as the general health and recovery of the rabbits. Rabbits were also evaluated for ability to weight bear and mobility within cages. At 12-weeks post-surgery rabbits were euthanized by injection of pentobarbital intravenously with a secondary measure of bilateral thoracotomy. Subsequently, the distal femur was harvested and processed for histological analysis.
Two full-thickness defects were created in each knee, resulting in 4 defects per rabbit (or 40 defects total for the 10 rabbits studied). Rabbit knees were divided into 4 groups, with both defects in each knee receiving the same treatment, and the contralateral knee serving as a control to account for any systemic effects. A total volume of 10 microliters (uL) of the test solutions were administered directly to each cartilage defect by micropipette, using sterile, disposable plastic tips. The treatment received by each group is summarized as follows:
In order to induce gelation of the peptide amphiphile solutions in situ in the defect site, 8 uL of a 12.5 mg/mL PA solution in phosphate-buffered saline (PBS) was administered followed immediately by 2 uL of a 0.5 M CaCl2 (in water), resulting in a final concentration of 10 mg/mL of the peptide amphiphile and 100 mM CaCl2. Recombinant human TGF-β1 (rhTGF-β1, Peprotech Inc.) was included in the PA solutions for Group 1, 2 and 3, in a concentration of […], resulting in a total dose of 1 ng per defect at the treatment dose of 10 uL. For animals receiving the TGF-binding peptide amphiphile (SEQ ID NO:4) this molecule was mixed at 10 mol % with the filler peptide amphiphile (SEQ ID NO:8) (a 1:9 molecular ratio). Each defect received 0.1 mg total peptide amphiphile (10 mg/mL in a 10 uL dose), either filler PA alone (Group 2) or filler PA plus TGF-binding PA (Group 3 and 4).
After the animals were sacrificed and tissue harvested at 12 weeks, extracted femur specimens were fixed in 10% neutral buffered formalin, decalcified for 24 hours, and the tissue processed for paraffin embedding. […]

recombinant TGF-β1 = recombinant TGF-β1 (Homo sapiens, UniProt P01137); conditions: among all possible 7-mer peptide sequences; cited from earlier work
Chain of recombinant TGF-β1 (P01137 279-390 limits assumed): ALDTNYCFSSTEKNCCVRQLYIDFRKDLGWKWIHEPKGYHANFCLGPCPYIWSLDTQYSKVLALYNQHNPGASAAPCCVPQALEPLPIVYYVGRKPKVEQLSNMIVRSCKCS

[2] = tested on: Rabbit Full Thickness Articular Cartilage Defects; experiment: Animal observation and gross pathology of rabbit knee cartilage defects at 12 weeks; type: in vivo, New Zealand White Rabbits; conditions: gross examination at 12 weeks
Protocol: Animal study was conducted at Northwestern University (Chicago, Ill.) in accordance with a protocol approved by the University's Animal Care and Usage Committee (ACUC). Ten (10) male New Zealand White Rabbits (weighing 3-3.5 kg) were anesthetized by intramuscular injection of ketamine at 30-40 mg/kg and xylazine 5-7 mg/kg. Isoflourane (1-3%) and oxygen were supplied by face mask until the animal was induced to sedation and general anesthesia for the entire procedure. Life support monitoring was supervised by veterinarians at Northwestern University's Center for Comparative Medicine (CCM, Chicago, Ill.). Under sterile aseptic technique, a midline 2-cm incision was made with the knee flexed at 20 degrees and subsequently a medial parapatellar capsulotomy was performed and the patella was translated laterally to expose the articular surface of the trochlea. Two full thickness chondral defects 2-mm in diameter were created in the trochlea (proximal-medial and distal-lateral) using curettes. […]
Post-operatively each rabbit was given intramuscular (IM) antibiotics (Baytril 72 hours duration) and IM pain medicine (Buprenex 24 hours duration). Signs of local or systemic infection were recorded as well as the general health and recovery of the rabbits. Rabbits were also evaluated for ability to weight bear and mobility within cages. […]

[3] = O'Driscoll score = 0, 1, 2 or 3, Mean ± SD, 12-weeks post-treatment
[4] = O'Driscoll score = 0, 1 or 2, Mean ± SD, 12-weeks post-treatment

Substance: rhTGF-β1: Recombinant human TGF-β1 (Peprotech Inc.); Group 1: 10 uL of PBS with 1 ng of rhTGF-β1
- qualitative assessment of histological sections (tissue morphology, defect fill, Safranin-O and Type II collagen staining) ([1]; 12 weeks, compared to controls): few had complete filling of the defect area
- Degenerative Changes [1, 3]: 2.70 ± 0.35
- Hypocellularity [1, 3]: 1.96 ± 0.72
- Safranin-O staining of matrix [1, 3]: 1.48 ± 0.60
- Surface regularity [1, 3]: 2.00 ± 0.80
- Bonding to adjacent cartilage [1, 4]: 1.33 ± 0.53
- Chondrocyte clustering [1, 4]: 1.26 ± 0.40
- Structural integrity [1, 4]: 1.07 ± 0.62
- Thickness [1, 4]: 1.15 ± 0.60
- Cellular morphology ([1]; O'Driscoll score = 0, 2, or 4, Mean ± SD, 12-weeks post-treatment): 2.56 ± 1.43
- Total (max. score = 24) ([1]; O'Driscoll total histological score, Mean ± SD, 12-weeks post-treatment): 15.52 ± 4.74
- O'Driscoll histological score ([1]; maximum possible score of 24, 12 weeks): 15.5±4.7
- defects with <50% thickness compared to the surrounding cartilage ([1]; number of defects, 12 weeks): 1 of 9
- defects with mild chondrocyte clustering ([1]; number of defects, 12 weeks): 7 of 9
- defects with normal cellularity in the regenerated tissue ([1]; number of defects, 12 weeks): 2 of 9
- defects with regenerated tissue completely bonded to the adjacent cartilage ([1]; number of defects, 12 weeks): 3 of 9
- defects with >50% but <100% (50%-100%) thickness compared to the surrounding cartilage ([1]; number of remaining defects, 12 weeks): 8

Substance: HSNGLPL
- binding to recombinant TGF-β1 (phage display) (recombinant TGF-β1): strong, specific binding sequence

Substance: HSNGLPLGGGSEEEAAAVVV(K)-CO(CH2)10CH3 (HSNGLPLGGGSEEEAAAVVVK(Lauroyl)) [TGF-binding PA]
- macroscopic appearance of repair tissue (tissue fill, defect boundary) [2]: significantly more hyaline-like tissue filling the defects
